Data as given in US6800618B2, “Chemosensitizing agents against chloroquine resistant plasmodium falciparum and methods of making and using thereof” (The United States of America as represented by the …, priority 2001, dated 2004).

Legend:
TM91C235 cells = assay: In vitro reversal activity (cell growth suppression, 3H-hypoxanthine incorporation) in TM91C235 cells; format: cell-based, Plasmodium falciparum; conditions: for Control % sup: test compounds only
From the text: For quantitative in vitro drug susceptibility testing, two well characterized P. falciparum clones, W2 and D6, were used. See Oduola et al. (1988) Exp Parasitol 66:86-95, which is herein incorporated by reference. W2 is a clone of the Indochina I isolate and is resistant to chloroquine and pyrimethamine, but susceptible to mefloquine. D6 is a clone from the Sierra I/UNC isolate and is susceptible to chloroquine and pyrimethamine, but has reduced susceptibilities to mefloquine and halofantrine. TM91C235 was isolates from Thailand and is highly resistant to mefloquine, chloroquine, and quinine.
The in vitro antimalarial drug susceptibility assay used is a modification of the procedures first published by Desjardins, et al. with modifications developed by Milhous, et al. See Desjardins, R. E., et al. (1979) Antimicrobial Agents Chemother 16:710-718; and Milhous, et al. (1985) Antimicrobial Agents Chemother 27:525-530, which are herein incorporated by reference. In brief, the assay is based on the incorporation of radiolabeled hypoxanthine by the parasites and inhibition of isotope incorporation is attributed to activity of known or candidate antimalarial drugs. For each assay, proven antimalarials, such as chloroquine, mefloquine, quinine, artemisinin, pyrimethamine and sulfadoxine, were used as controls. The incubation period was 66 hours and the starting parasitemia was 0.2% with a 1% hematocrit. The media used was RPMI-1640 culture media with no folate or p-aminobenzoic acid (PABA). Albumax may be used instead of 10% normal heat inactivated human plasma.
If a candidate compound was tested without any prior knowledge of its activity or solubility, the compound was dissolved directly in dimethylsulfoxide (DMSO) and diluted 400 fold with complete culture media. These unknown compounds were normally started at a highest concentration of about 50,000 ng/ml. The compounds were then diluted 2-fold, 11 times, to give a concentration range of about 1,048-fold. These dilutions were performed automatically by a Biomek 1000 or 2000 Liquid Handling System into 96-well microtiter plates.
(§1) 25 μl of each diluted candidate compound was then transferred to test plates, 200 μl of parasitized erythrocytes (0.2% parasitemia and 1% hematocrit) were added, and incubated at 37° C. in a controlled environment of 5% CO2, 5% O2 and 90% N2. After 42 hours, 25 μl of ^3H-hypoxanthine was added and the plates were incubated for an additional 24 hours. At the end of the 66 hour incubation period, the plates were frozen at −70° C. to lyse the red cells and later thawed and harvested onto glass fiber filter mats by using a 96-well cell harvester. The filter mats were then counted in a scintillation counter and the data was analyzed.
Each of these test compounds were tested under three different concentrations, 5000, 500, and 50 ng/ml, in the presence of 10 ng/ml of chloroquine and 5 ng/ml of mefloquine. […] Thus, the compounds of the present invention may be used to treat, prevent or inhibit drug resistant malaria.

TM91C235 = assay: FIC index in TM91C235 isolate; format: cell-based, Plasmodium falciparum; set-up: key: 1.0 = additive; <1.0 = synergy; >1.0 = antagonism; conditions: isolate from Southeast Asia (Thailand); same method as for W-2
Protocol: Fifty percent inhibitory concentrations (IC50s) were determined for each candidate compound alone and for candidate compounds in fixed combinations of their respective IC50s (1:1, 1:3, 3:1). […] The FIC is the actual IC50 of one compound in the presence of a second compound but is expressed as a fraction of its IC50 when used alone. This index is a mathematical representation of the isobologram such that an FIC index of 1.0 represents the line of additive on the isobologram. An FIC index of less than 1.0 represents synergy or potentiation and an FIC index of greater than 1.0 represents antagonism.
The same assay method described above for W-2 was used except that the strains used were isolated from Thailand, Brazil, and Peru, respectively.

[1] = system: Plasmodium falciparum W2 clone; assay: FIC index with chloroquine (isobologram analysis) in W2 clone; format: cell-based; set-up: key: 1.0 = additive; <1.0 = synergy; >1.0 = antagonism; conditions: 1:1 combination of drug and chloroquine; chloroquine-resistant W2 clone
Protocol: In brief, the assay is based on the incorporation of radiolabeled hypoxanthine by the parasites and inhibition of isotope incorporation is attributed to activity of known or candidate antimalarial drugs. For each assay, proven antimalarials, such as chloroquine, mefloquine, quinine, artemisinin, pyrimethamine and sulfadoxine, were used as controls. The incubation period was 66 hours and the starting parasitemia was 0.2% with a 1% hematocrit. […] Albumax may be used instead of 10% normal heat inactivated human plasma.
as §1
The FIC is the actual IC50 of one compound in the presence of a second compound but is expressed as a fraction of its IC50 when used alone. This index is a mathematical representation of the isobologram such that an FIC index of 1.0 represents the line of additive on the isobologram. An FIC index of less than 1.0 represents synergy or potentiation and an FIC index of greater than 1.0 represents antagonism.
In the isobologram graphs as shown in FIGS. 1-3, the x-axis is fractional inhibitory concentration (FIC) of chloroquine and the y-axis is FIC of chemosensitizing agent. The FIC is the actual IC50 of one drug in the presence of the second drug but is expressed as a fraction of its IC50 when used alone. If the isobologram graph is a straight line, it represents an additive effect of the two drugs. If the graph forms a concave curve below the line, it indicates synergy or potentiation of the combination. Below the line means synergy or potentiation and above the line means antagonism.

Peruvian PC49 = assay: FIC index in Peruvian PC49 isolate; format: cell-based, Plasmodium falciparum; set-up: key: 1.0 = additive; <1.0 synergy; >1.0 antagonism; conditions: isolate from South America (Peru); same method as for W-2
Protocol: (§2) Fifty percent inhibitory concentrations (IC50s) were determined for each candidate compound alone and for candidate compounds in fixed combinations of their respective IC50s (1:1, 1:3, 3:1). […] See Elion, G. V., et al. (1954) J Biol Chem 208:477-488, which is herein incorporated by reference. The FIC is the actual IC50 of one compound in the presence of a second compound but is expressed as a fraction of its IC50 when used alone. This index is a mathematical representation of the isobologram such that an FIC index of 1.0 represents the line of additive on the isobologram. An FIC index of less than 1.0 represents synergy or potentiation and an FIC index of greater than 1.0 represents antagonism.
(§3) Parasites from different regions responded differently to the compounds of the present invention. The same assay method described above for W-2 was used except that the strains used were isolated from Thailand, Brazil, and Peru, respectively.

RCS = assay: FIC index in RCS isolate; format: cell-based, Plasmodium falciparum; set-up: key: 1.0 = additive; <1.0 synergy; >1.0 antagonism; conditions: isolate from Brazil; same method as for W-2
Protocol: as §2, §3

[2] = test compound 50 ng/ml combined with 5 ng/ml mefloquine
[3] = test compound 500 ng/ml combined with 5 ng/ml mefloquine
[4] = test compound 500 ng/ml combined with 10 ng/ml chloroquine
[5] = test compound 5000 ng/ml combined with 5 ng/ml mefloquine
[6] = test compound 5000 ng/ml combined with 10 ng/ml chloroquine

| SMILES | Mefloquine % SUP (TM91C235 cells; [2]) | Mefloquine % SUP (TM91C235 cells; [3]) | Chloroquine % sup (TM91C235 cells; [4]) | Mefloquine % SUP (TM91C235 cells; [5]) | Chloroquine % sup (TM91C235 cells; [6]) | Control % sup (TM91C235 cells; 50 ng/ml) | Control % sup (TM91C235 cells; 500 ng/ml) | Control % sup (TM91C235 cells; 5000 ng/ml) | FIC index TM91C235 (TM91C235) | FIC (fractional inhibitory concentration) index [1] | FIC index Peruvian PC49 (Peruvian PC49) | FIC index RCS (RCS) | Chloroquine % sup (TM91C235 cells; test compound 50 ng/ml combined with 10 ng/ml chloroquine) |
| --- | --- | --- | --- | --- | --- | --- | --- | --- | --- | --- | --- | --- | --- |
| CCN(CC)CCCCN1c2ccccc2CCc2ccccc21 [7j, 5-(4-Diethylaminobutyl)iminodibenzyl] | 64% | 95% | 100% | 100% | 100% | 62% | 95% | 100% | 0.41 | 0.39 | 0.57 | 0.57 |  |
| c1ccc2c(c1)CCc1ccccc1N2CCCCN1CCCC1 [compound 7m, 5-(4-Pyrrolidin-1-yl-butyl)iminodibenzyl] | 64% | 96% | 100% | 100% | 100% | 58% | 98% | 100% | 0.42 | 0.32 | 0.66 | 0.51 |  |
| c1ccc2c(c1)Sc1ccccc1N2CCCCN1CCCC1 [compound 7e, 10-(4-Pyrrolidin-1-yl-butyl)phenothiazine] | 33% | 67% | 99% | 95% | 100% | 38% | 70% | 96% | 0.25 | 0.21 | 0.5 | 0.51 |  |
| CCN(CC)CCCCCN1c2ccccc2CCc2ccccc21 [7u, 5-(5-Diethylaminopentyl)iminodibenzyl] |  |  |  |  |  |  |  |  | 0.48 | 0.44 | 0.82 | 0.36 |  |
| CN(C)CCCCN1c2ccccc2CCc2ccccc21 [7i, 5-(4-Dimethylaminobutyl)iminodibenzyl] | 43% | 70% | 99% | 95% | 100% | 59% | 73% | 96% | 0.26 | 0.23 | 0.62 | 0.52 |  |
| CCN(CC)CCCCN1c2ccccc2Sc2ccccc21 [7b, 10-(4-Diethylaminobutyl)phenothiazine] | 17% | 30% | 99% | 100% | 100% | 26% | 38% | 100% | 0.29 | 0.23 | 0.41 | 0.41 | 31% |
| c1ccc2c(c1)CCc1ccccc1N2CCCCN1CCCCC1 [7n, 5-(4-Piperidin-1-yl-butyl) iminodibenzyl] |  |  |  |  |  |  |  |  | 0.54 | 0.45 | 0.73 | 0.36 |  |
| CN1CCN(CCCCN2c3ccccc3Sc3ccccc32)CC1 [7h, 10-[4-(4-Methyl-piperazin-1-yl)-butyl]phenothiazine] |  |  |  |  |  |  |  |  | 0.48 | 0.4 | 0.98 | 0.49 |  |
| c1ccc2c(c1)Sc1ccccc1N2CCCCN1CCOCC1 [7g, 10-(4-Morpholin-4-yl-butyl)phenothiazine] |  |  |  |  |  |  |  |  | 0.32 | 0.39 | 0.81 | 0.37 |  |
| c1ccc2c(c1)CCc1ccccc1N2CCCCCN1CCCC1 [7v, 5-(5-Pyrrolidin-1-yl-pentyl)iminodibenzyl] |  |  |  |  |  |  |  |  | 0.55 | 0.48 | 0.59 | 0.37 |  |
